This data set relates to rodent carcinogenicity bioassays, tumor incidence. Nature of the data set: CCRIS carcinogenicity studies. In short, it runs like this:
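NCI-built, expert-reviewed records of carcinogenicity and related test outcomes (mutagenicity, tumor promotion/inhibition) compiled from published and report sources, historical span 1985-2011, not updated.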

Active and inactive are the calls of the source. How the calls were made is not given here.

For the molecule `Oc1ccc2ccccc2c1N=Nc1ccccc1`, the carcinogen call reads like this: (Species: MOUSE, Route: SUBCUTANEOUS, Tumor Site: Type of Lesion: LIVER) “active; positive”; (Species: MOUSE, Strain/Sex: B6C3F1/MALE, Route: ORAL, Dose: 0, 500, 1000 PPM IN DIET, Dose: 0, 500, 1000 PPM IN DIET) “inactive; negative”; (Species: RAT, Strain/Sex: F344/FEMALE, Route: ORAL, Dose: 0, 250, 500 PPM IN DIET, Dose: 0, 250, 500 PPM IN DIET, Tumor Site: Type of Lesion: LIVER: NEOPLASTIC NODULE) “active; positive”; (Species: RAT, Strain/Sex: F344/MALE, Route: ORAL, Dose: O, 250, 500 PPM IN DIET, Dose: O, 250, 500 PPM IN DIET, Tumor Site: Type of Lesion: LIVER: NEOPLASTIC NODULE) “active; positive”.

As to `C[N+](C)(C)CCCl`, the carcinogen call runs as follows: (Species: MOUSE, Strain/Sex: B6C3F1/FEMALE, Route: ORAL, Dose: 0, 500, 2000 PPM IN DIET, Dose: 0, 500, 2000 PPM IN DIET) “inactive; negative”; (Species: MOUSE, Strain/Sex: B6C3F1/MALE, Route: ORAL, Dose: 0, 500, 2000 PPM IN DIET, Dose: 0, 500, 2000 PPM IN DIET) “inactive; negative”; (Species: RAT, Strain/Sex: F344/FEMALE, Route: ORAL, Dose: 0, 1500, 3000 PPM IN DIET, Dose: 0, 1500, 3000 PPM IN DIET) “inactive; negative”; (Species: RAT, Strain/Sex: F344/MALE, Route: ORAL, Dose: 0, 1500, 3000 PPM IN DIET, Dose: 0, 1500, 3000 PPM IN DIET) “inactive; negative”.

As for `FC(F)(F)C(Cl)Cl`, the carcinogen call was “active; positive” (Species: RAT, Strain/Sex: CRL:CDBR/FEMALE, Route: INHALATION, Dose: 0, 300, 1000, 5000 PPM 6 HR/D 5 D/WK FOR 2 YR (STUDY DURATION: 2 YR), Dose: 0, 300, 1000, 5000 PPM 6 HR/D 5 D/WK FOR 2 YR (STUDY DURATION: 2 YR), Tumor Site: Type of Lesion: LIVER: ADENOMA, CHOLANGIOFIBROMA) and “active; positive” (Species: RAT, Strain/Sex: CRL:CDBR/MALE, Route: INHALATION, Dose: 0, 300, 1000, 5000 PPM 6 HR/D 5 D/WK FOR 2 YR (STUDY DURATION: 2 YR), Dose: 0, 300, 1000, 5000 PPM 6 HR/D 5 D/WK FOR 2 YR (STUDY DURATION: 2 YR), Tumor Site: Type of Lesion: LIVER: ADENOMA, PANCREAS: ADENOMA, TESTES: ADENOMA, Tumor Site: Type of Lesion: LIVER: ADENOMA, PANCREAS: ADENOMA, TESTES: ADENOMA).

Consider `O=C1c2ccccc2C(=O)c2c(O)cccc21`, for which the carcinogen call (Species: RAT, Strain/Sex: ACI/N/MALE, Route: ORAL, Dose: 0, 1% IN BASAL DIET FOR DURATION OF STUDY (STUDY DURATION: 480 D), Tumor Site: Type of Lesion: CECUM: ADENOMA, ADENOCARCINOMA, COLON: ADENOMA, ADENOCARCINOMA, LIVER: TUMOR, STOMACH: TUMOR, Tumor Site: Type of Lesion: CECUM: ADENOMA, ADENOCARCINOMA, COLON: ADENOMA, ADENOCARCINOMA, LIVER: TUMOR, STOMACH: TUMOR) is “active; positive”.

In the case of `CC/C(=C(\c1ccccc1)c1ccc(OCCN(C)C)cc1)c1ccccc1`, the carcinogen call (Species: MONKEY, Strain/Sex: CYNOMOLGUS/FEMALE, Route: ORAL, Dose: 0, 20 MG/WOMAN/D HUMAN DOSE EQUIVALENT IN DIET FOR 36 MONTHS BEGINNING 3 MONTHS POST BILATERAL OVARIECTOMY (STUDY DURATI) is “inactive; negative”; the carcinogen call (Species: MOUSE, Strain/Sex: CD-1/FEMALE, Route: SUBCUTANEOUS, Dose: 0, 1, 2, 5, 10, 25, 50 UG/D ON DAYS 1-5 OF LIFE (STUDY DURATION: 17 MO), Dose: 0, 1, 2, 5, 10, 25, 50 UG/D ON DAYS 1-5 OF LIFE (STUDY DURATION: 17 MO), Tumor Site: Type of Lesion: UTERUS: ADENOCARCINOMA) was “active; positive”; the carcinogen call (Species: Mouse, Strain/Sex: CD-1/Female (30/group), Route: Subcutaneous, Dose: 0, 10 ug as tamoxifen in peanut oil, dosed on days 1-5 of life and retained for 1.5 (4 animals), 3 (4 animals), 6 (4 ani, Dose: 0, 10 ug as tamoxifen in peanut oil, dosed on days 1-5 of life and retained for 1.5 (4 animals), 3 (4 animals), 6 (4 ani, Tumor Site: Type of Lesion: Uterus and ovaries examined) is “inactive; negative”; the carcinogen call (Species: Mouse, Strain/Sex: CD-1/Female (35/group), Route: Subcutaneous, Dose: 0, 5, 10, 25, 50 ug as tamoxifen in peanut oil, dosed on days 1-5 of life and retained for 3 (4 animals), 6 (4 animals),, Dose: 0, 5, 10, 25, 50 ug as tamoxifen in peanut oil, dosed on days 1-5 of life and retained for 3 (4 animals), 6 (4 animals),, Tumor Site: Type of Lesion: Uterus and ovaries examined) was “inactive; negative (nonneoplastic changes were observed)”; the carcinogen call (Species: RAT, Strain/Sex: ALDERLEY PARK/FEMALE, Route: GAVAGE, Dose: 0, 5, 20, 35 MG/KG/D IN 0.5% HYDROXYPROPYL METHYLCELLULOSE FOR 2 YR (STUDY DURATION: 2 YR), Dose: 0, 5, 20, 35 MG/KG/D IN 0.5% HYDROXYPROPYL METHYLCELLULOSE FOR 2 YR (STUDY DURATION: 2 YR), Tumor Site: Type of Lesion: LIVER: HEPATOCELLULAR ADENOMA, HEPATOCELLULAR CARCINOMA, HEPATO/CHOLANGIOCELLULAR CARCINOMA) is “active; positive”; the carcinogen call (Species: RAT, Strain/Sex: ALDERLEY PARK/MALE, Route: GAVAGE, Dose: 0, 5, 20, 35 MG/KG/D IN 0.5% HYDROXYPROPYL METHYLCELLULOSE FOR 2 YR (STUDY DURATION: 2 YR), Dose: 0, 5, 20, 35 MG/KG/D IN 0.5% HYDROXYPROPYL METHYLCELLULOSE FOR 2 YR (STUDY DURATION: 2 YR), Tumor Site: Type of Lesion: LIVER: HEPATOCELLULAR ADENOMA, HEPATOCELLULAR CARCINOMA, HEPATO/CHOLANGIOCELLULAR CARCINOMA) was “active; positive”. Also, the carcinogen call was “active; positive” (Species: RAT, Strain/Sex: SPRAGUE-DAWLEY/FEMALE, Route: GAVAGE, Dose: 0, 2.8, 11.3, 45.2 MG/KG/D IN CARBOXYMETHYL-CELLULOSE FOR UP TO 1 YR WITH 2 RECOVERY PERIODS, 4 WK OF RECOVERY AFTER 6 M, Dose: 0, 2.8, 11.3, 45.2 MG/KG/D IN CARBOXYMETHYL-CELLULOSE FOR UP TO 1 YR WITH 2 RECOVERY PERIODS, 4 WK OF RECOVERY AFTER 6 M, Tumor Site: Type of Lesion: LIVER: ADENOMA, CARCINOMA); “active; positive” (Species: RAT, Strain/Sex: SPRAGUE-DAWLEY/FEMALE, Route: GAVAGE, Dose: 0, 11.3, 22.6 MG/KG IN 0.5% CARBOXYMETHYLCELLULOSE 1/D 7 D/WK FOR UP TO 12 MO (STUDY DURATION: 15 MO), Dose: 0, 11.3, 22.6 MG/KG IN 0.5% CARBOXYMETHYLCELLULOSE 1/D 7 D/WK FOR UP TO 12 MO (STUDY DURATION: 15 MO), Tumor Site: Type of Lesion: LIVER: HEPATOCELLULAR ADENOMA, HEPATOCELLULAR CARCINOMA); “active; positive” (Species: RAT, Strain/Sex: WISTAR/FEMALE, Route: ORAL, Dose: 0, 1 MG/KG BW/D IN PEANUT OIL/LECITHIN/CONDENSED MILK MIXTURE ON DAYS 2-5 OF AGE (STUDY DURATION: 35 MONTHS), Tumor Site: Type of Lesion: UTERUS: ADENOCARCINOMA, VAGINA/CERVIX: SQUAMOUS CELL CARCINOMA); “active; positive” (Species: RAT, Strain/Sex: WISTAR/FEMALE, Route: ORAL, Dose: 0, 420 PPM IN DIET FOR 3 MO (STUDY DURATION: LIFETIME), Tumor Site: Type of Lesion: LIVER: TUMOR).

As for `CC(C)(C)NC[C@H](O)COc1cccc2c1CCCC2=O`, the carcinogen call is “inactive; negative” (Species: MOUSE, Strain/Sex: SWISS/MALE, Route: ORAL, Dose: 0, 12, 50, 200 MG/KG/D IN DIET FOR 80 WK (STUDY DURATION: 80 WK), Dose: 0, 12, 50, 200 MG/KG/D IN DIET FOR 80 WK (STUDY DURATION: 80 WK)); “inactive; negative” (Species: RAT, Strain/Sex: WISTAR/FEMALE, Route: ORAL, Dose: 0, 0.5, 2, 5 MG/KG/D IN DIET FOR 2 YR (STUDY DURATION: 2 YR), Dose: 0, 0.5, 2, 5 MG/KG/D IN DIET FOR 2 YR (STUDY DURATION: 2 YR)); “inactive; negative” (Species: RAT, Strain/Sex: WISTAR/FEMALE, Route: ORAL, Dose: 0, 5, 30, 180 MG/KG/D IN DIET FOR 2 YR (STUDY DURATION: 2 YR), Dose: 0, 5, 30, 180 MG/KG/D IN DIET FOR 2 YR (STUDY DURATION: 2 YR)); “inactive; negative” (Species: RAT, Strain/Sex: WISTAR/MALE, Route: ORAL, Dose: 0, 0.5, 2, 5 MG/KG/D IN DIET FOR 2 YR (STUDY DURATION: 2 YR), Dose: 0, 0.5, 2, 5 MG/KG/D IN DIET FOR 2 YR (STUDY DURATION: 2 YR)); “active; positive” (Species: RAT, Strain/Sex: WISTAR/MALE, Route: ORAL, Dose: 0, 5, 30, 180 MG/KG/D IN DIET FOR 2 YR (STUDY DURATION: 2 YR), Dose: 0, 5, 30, 180 MG/KG/D IN DIET FOR 2 YR (STUDY DURATION: 2 YR), Tumor Site: Type of Lesion: LIVER: HEPATOMA).

For the origin of these results see PubChem BioAssay AID1259411 (Chemical Carcinogenesis Research Information System (CCRIS), 2018).
